The subject of one data set is HCLE cells. The data set is described as follows: MTT cell viability, titration of osmolyte concentration in isotonic medium. The format is cell-based, human. Here is the method: An immortalized human corneal limbal epithelial (HCLE) cell line (a kind gift from Ilene Gipson, Schepens Eye Research Institute, Boston, Mass.) was used in the study. HCLE cells were cultured as previously described (Garrett et al. Invest Ophthalmol Vis Sci 2008; 49:4844-4849). Briefly, the cells were maintained on plastic at 2×10^4/cm^2 in a keratinocyte serum-free medium (K-SFM; Invitrogen-Gibco, Grand Island, N.Y.), supplemented with 25 μg/mL bovine pituitary extract, 0.2 ng/mL epidermal growth factor (EGF; Invitrogen, Mount Waverley, VIC, Australia), and 0.4 mM CaCl2 and were grown at 37° C. in a 5% carbon dioxide atmosphere. To enhance nutrient composition, the cultures were switched at approximately 50% confluence to a 1:1 mixture of K-SFM and low calcium DMEM/F12 (Invitrogen), to achieve confluence. All the experiments involving the culture of HCLE cells were performed at 37° C. in a 5% carbon dioxide atmosphere unless otherwise indicated.
To determine the optimal concentration of betaine for use in the osmoprotective studies, betaine (Sigma-Aldrich, St. Louis, Mo.; 1.0-200 mM) was prepared in culture medium. […] Following treatment with betaine, cell viability was assessed using the 3-[4,5-dimethylthiazol-2-yl]-2,5-diphenyltetr azoliumbromide (MTT) cell survival assays (Promega, Madison, Wis.).

Data set [1] concerns TNF-α. The data set is described as follows: TNF-α production by HCLE cells in hyperosmolar medium (ELISA). The format is cell-based, human. To be noted: 10 mM, 500 mOsm, 16 h, vs hyperosmolar medium without osmolyte. Here is the method: Enzyme-linked immunosorbent assay (ELISA) was used to quantify TNF-α. The culture supernatants were collected, centrifuged at 1500 rpm for 10 min to remove cellular debris and stored at −80° C. until processed. Assays were performed according to manufacturer's protocol (R&D Systems, Minneapolis, Minn.).
(§1) Cultured human corneal limbal epithelial (HCLE) cells were exposed to culture medium with or without carnitine (10 mM) at 300 mOsm (isotonic), 450 mOsm (moderate), and 500 mOsm (hyperosmotic) for 16 h. Induction of apoptosis was detected by quantification of the proteolytic activity of caspase-8, caspase-9, or caspase-3/7 using caspase activity assays, and production of tumor necrosis factor (TNF)-α, a known apoptosis inducer, using ELISA. Annexin V and Propidium iodine (PI) staining was performed to detect the percentage of apoptotic cells using confocal microscopy and flow cytometry.
On the technique in general: ELISA stands for enzyme-linked immunosorbent assay.

A further data set deals with caspase-8. In words: Caspase-Glo luminescent caspase activity in HCLE under hyperosmotic stress. The settings on record: 16 h; for reduction of caspase-8 activity: 500 mOsm. The format is cell-based, human. The method, then: (§2) Caspase-3/7, -8 and -9 activities were assayed using a luminescent assay kit (Promega, Madison, Wis.) according to the manufacturer's instructions. Briefly, 100 μL of Caspase-Glo-3/7, -8 and -9 reagents were added to HCLE at maintained on plastic at 2×10^4/cm^2, mixed and incubated for one hour at room temperature. Luminescence was measured using a SpectraFluor Plus microplate reader.
as §1

Another data set deals with caspase-3/7. The data set is described as above. The format is cell-based, human. The settings on record: 16 h. Here is the method:
as §2
(§3) […] Induction of apoptosis was detected by quantification of the proteolytic activity of caspase-8, caspase-9, or caspase-3/7 using caspase activity assays, and production of tumor necrosis factor (TNF)-α, a known apoptosis inducer, using ELISA. Annexin V and Propidium iodine (PI) staining was performed to detect the percentage of apoptotic cells using confocal microscopy and flow cytometry.

For the next data set, the system named is caspase-9. Described as above. The format is cell-based, human. The settings on record: 16 h. The method, then: as §2, §3
Another data set relates to IL-17. In words: qRT-PCR of mouse conjunctiva, ICES dry eye model. The format is in vivo, C57BL/6 mice. To be noted: normalized to GAPDH; for mRNA expression of IL-17 vs PBS treatment group: Schedule 1, Day 21, conjunctiva. An excerpt:
(§4) For Schedule 1, six (6×) mice per each group at the end of Day 21 and five (5×) mice from each group at the end of Day 35 post-housing in ICES and undergoing the treatment were sacrificed with an overdose of a mixture of ketamine and xylazine for qRT-PCR evaluation of […] inflammatory responses. On the other hand, for Schedule 2, three (3×) mice were sacrificed at the end of Day 21, and all the other mice were sacrificed at the end of Day 35 post-housing in ICES and undergoing the treatment. Additionally, seven healthy animals which were not housed in ICES and received no treatment were euthanized as healthy controls for comparison.
(§5) For qRT-PCR detection of IL-1β, IL-6, IL-17, TNF-α, and GAPDH, total RNA from conjunctivas (2 eyes/group/schedule) were extracted and pooled from each of the five experimental groups using the RNA isolation kit according to the manufacturer's instructions (PicoPure RNA isolation kit, 40 isolations, Arcturus). cDNA was synthesized from 1-μg of total RNA using random primer and M-MuLV reverse transcriptase. The primer sequences for qRT-PCR detection of these mediators have been designed in preparation for qRT-PCR work (Table 1).
(§6) Expression of IL-1β, IL-6, IL-17, or TNF-α detected at mRNA level from Real-time PCR were normalized to that of the housekeeping gene GAPDH. Total RNA were collected from the pooled conjunctiva from 2 eyes of each group (total 6× eyes per each treatment group were used for qRT-PCR).
In general terms: In qPCR the cycle at which signal appears reflects the starting amount.

A further data set deals with IL-1β. The data set is described as follows: qRT-PCR of mouse conjunctiva, ICES dry eye model. To be noted: normalized to GAPDH; for mRNA expression of IL-1β vs PBS treatment group: Schedule 1, Day 21, conjunctiva. The format is in vivo, C57BL/6 mice.
Excerpt: as §4, §5, §6

A further data set has as its system IL-6. In words: qRT-PCR of mouse conjunctiva, ICES dry eye model. The format is in vivo, C57BL/6 mice. The settings on record: normalized to GAPDH; for mRNA expression of IL-6 vs PBS treatment group: Schedule 1, Day 21, conjunctiva.
Excerpt: as §4, §5, §6

Data set [2] concerns TNF-α. The data set is described as follows: qRT-PCR of mouse conjunctiva, ICES dry eye model. The format is in vivo, C57BL/6 mice. To be noted: normalized to GAPDH; for mRNA expression of TNF-α vs PBS treatment group: Schedule 1, Day 21, conjunctiva.
Excerpt: as §4, §5, §6

[3] abbreviates: Schedule 2, Day 35, conjunctiva.

This is an account of results in patent US10912752B2, “Methods and compositions for reducing ocular discomfort” (Brien Holden Vision Institute Limited, priority 2012, dated 2021).

Entries after “also recorded” stand apart in the source; their conditions may differ.

Take `C[N+](C)(C)CC(=O)[O-]` [betaine, trimethylglycine]: the “betaine concentration not toxic to the cells” value with HCLE cells (titration 0-200 mM, 300 mOsm medium, 16 h, MTT) is listed as “up to 40 mM”. Besides, the “reduction in TNF-α levels” value in the data set on TNF-α [1] is on record as 40%. Moreover, the “reduction of caspase-8 activity” value is 2- to 3 fold in the data set with caspase-8 (5 mM) and 4- to 5.2 fold with caspase-8 (10 mM). Also, the “reduction of caspase-3/7 activity” value is given as 2- to 3 fold in the data set with caspase-3/7 (5 mM, 500 mOsm) and 4- to 5.2 fold in the data set on caspase-3/7 (10 mM, 500 mOsm). Moreover, the “reduction of caspase-9 activity” value in the data set on caspase-9 (5 mM, 500 mOsm) was 2- to 3 fold; in the data set on caspase-9 (10 mM, 500 mOsm) it was 4- to 5.2 fold. In the data set on IL-17, the “mRNA expression of IL-17 vs PBS treatment group” value was “statistically significant reduction”. The “mRNA expression of IL-1β vs PBS treatment group” value in the data set with IL-1β is “statistically significant reduction”. Moreover, in the data set with IL-6, the “mRNA expression of IL-6 vs PBS treatment group” value is reported as “statistically significant reduction”. Further, in the data set on TNF-α [2], the “mRNA expression of TNF-α vs PBS treatment group” value is “statistically significant reduction”. Also, the “mRNA expression of TNF-α vs PBS control (C)” value with TNF-α [2] (setting [3]) is “statistically significant reduction”.
On to `C[N+](C)(C)CC(O)CC(=O)[O-]` (stereo not drawn) [carnitine, 3-hydroxy-4-(trimethylazaniumyl)butanoate], for which, in the data set on HCLE cells (toxicity of various concentrations), the “concentration optimal to carry out osmoprotective studies (cell viability analysis)” value amounted to 10000 µM. Also, in the data set with TNF-α [1], the “reduction in TNF-α levels” value came to 25%. In addition, the “change in Caspase-8 activity (in words)” value in the data set with caspase-8 (10 mM, hypertonic medium) is “minimum or no visible decline”. Moreover, the “decreasing trend for caspase-3/7 activities” value in the data set with caspase-3/7 (10 mM, 500 mOsm) came out at 20%. Besides, the “change in Caspase-3/7 activity (in words)” value with caspase-3/7 (10 mM, hypertonic medium) is “significant lowering”. Besides, the “reduction in cellular caspase-9 activities” value in the data set on caspase-9 (10 mM, 500 mOsm) was 33%. Besides, the “change in Caspase-9 activity (in words)” value in the data set on caspase-9 (10 mM, hypertonic medium) was “significant lowering”. Moreover, the “mRNA expression of IL-17 vs PBS treatment group” value in the data set on IL-17 (listed as B) is listed as “statistically significant reduction; also recorded: lowest expression level”. Besides, in the data set with IL-17 (setting [3]), the “mRNA expression of IL-17 vs PBS control (C)” value is given as “statistically significant reduction”. In the data set on IL-1β (listed as B), the “mRNA expression of IL-1β vs PBS treatment group” value was “statistically significant reduction; also recorded: lowest expression level”. For the same compound, in the data set on IL-1β (setting [3]), the “mRNA expression of IL-1β vs PBS control (C)” value is “statistically significant reduction”. The “mRNA expression of IL-6 vs PBS treatment group” value in the data set on IL-6 (listed as B) is recorded as “statistically significant reduction; also recorded: lowest expression level”. The “mRNA expression of IL-6 vs PBS control (C)” value in the data set on IL-6 (setting [3]) is recorded as “statistically significant reduction”. The “mRNA expression of TNF-α vs PBS treatment group” value in the data set with TNF-α [2] (listed as B) was “statistically significant reduction; also recorded: lowest expression level”.
